In patent publication EP4722207A1, “OXOISOINDOLINYL-SUBSTITUTED TETRAHYDROPYRIMIDINEDIONE DERIVATIVE AND USE THEREOF” (Gluetacs Therapeutics (Shanghai) Co., Ltd., priority 2023, dated 2024):

Experiments:
WEE1 = molecular target: T1, WEE1 (Homo sapiens, UniProt P30291+Q96SW2); test: Western-blot assay, substrate protein degradation in hPBMCs: WEE1; format: cell-based; conditions: for WEE1 substrate protein remaining %: compounds at 50 nM and 500 nM, 24 hours
T1 construct: effects of the compounds of the present disclosure on the expression of target proteins in cells; endogenous in cells; host or cells: human PBMCs (hPBMCs)
T1 sequence (P30291 whole entry): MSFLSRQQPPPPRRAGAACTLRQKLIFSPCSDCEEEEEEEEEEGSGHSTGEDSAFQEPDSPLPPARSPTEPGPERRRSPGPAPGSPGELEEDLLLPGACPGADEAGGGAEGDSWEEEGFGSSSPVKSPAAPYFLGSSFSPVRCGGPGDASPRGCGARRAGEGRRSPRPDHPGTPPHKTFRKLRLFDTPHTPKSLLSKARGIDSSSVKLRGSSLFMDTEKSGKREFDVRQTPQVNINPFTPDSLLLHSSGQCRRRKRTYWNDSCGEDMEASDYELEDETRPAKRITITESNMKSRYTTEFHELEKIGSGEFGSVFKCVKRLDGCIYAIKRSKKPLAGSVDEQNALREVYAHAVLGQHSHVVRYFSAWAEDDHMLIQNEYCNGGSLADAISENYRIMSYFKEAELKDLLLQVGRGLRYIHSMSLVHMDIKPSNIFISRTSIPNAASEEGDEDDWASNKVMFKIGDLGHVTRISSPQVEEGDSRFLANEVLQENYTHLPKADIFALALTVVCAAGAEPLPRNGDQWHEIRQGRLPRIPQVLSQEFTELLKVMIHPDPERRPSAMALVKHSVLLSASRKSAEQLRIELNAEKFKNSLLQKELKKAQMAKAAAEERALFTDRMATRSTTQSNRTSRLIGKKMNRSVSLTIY
T1 sequence (Q96SW2 whole entry): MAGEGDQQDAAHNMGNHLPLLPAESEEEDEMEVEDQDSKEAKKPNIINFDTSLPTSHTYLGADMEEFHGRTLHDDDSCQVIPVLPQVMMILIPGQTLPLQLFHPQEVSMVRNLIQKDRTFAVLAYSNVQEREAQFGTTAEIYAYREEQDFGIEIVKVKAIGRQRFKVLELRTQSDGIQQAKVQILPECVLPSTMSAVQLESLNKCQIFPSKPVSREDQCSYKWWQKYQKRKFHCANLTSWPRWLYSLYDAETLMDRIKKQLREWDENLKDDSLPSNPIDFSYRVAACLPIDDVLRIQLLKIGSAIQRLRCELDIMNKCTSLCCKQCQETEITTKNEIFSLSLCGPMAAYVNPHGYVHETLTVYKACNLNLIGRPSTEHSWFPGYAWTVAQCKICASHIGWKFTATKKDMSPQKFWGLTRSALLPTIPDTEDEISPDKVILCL
T1 sequence (Q16531 whole entry partner): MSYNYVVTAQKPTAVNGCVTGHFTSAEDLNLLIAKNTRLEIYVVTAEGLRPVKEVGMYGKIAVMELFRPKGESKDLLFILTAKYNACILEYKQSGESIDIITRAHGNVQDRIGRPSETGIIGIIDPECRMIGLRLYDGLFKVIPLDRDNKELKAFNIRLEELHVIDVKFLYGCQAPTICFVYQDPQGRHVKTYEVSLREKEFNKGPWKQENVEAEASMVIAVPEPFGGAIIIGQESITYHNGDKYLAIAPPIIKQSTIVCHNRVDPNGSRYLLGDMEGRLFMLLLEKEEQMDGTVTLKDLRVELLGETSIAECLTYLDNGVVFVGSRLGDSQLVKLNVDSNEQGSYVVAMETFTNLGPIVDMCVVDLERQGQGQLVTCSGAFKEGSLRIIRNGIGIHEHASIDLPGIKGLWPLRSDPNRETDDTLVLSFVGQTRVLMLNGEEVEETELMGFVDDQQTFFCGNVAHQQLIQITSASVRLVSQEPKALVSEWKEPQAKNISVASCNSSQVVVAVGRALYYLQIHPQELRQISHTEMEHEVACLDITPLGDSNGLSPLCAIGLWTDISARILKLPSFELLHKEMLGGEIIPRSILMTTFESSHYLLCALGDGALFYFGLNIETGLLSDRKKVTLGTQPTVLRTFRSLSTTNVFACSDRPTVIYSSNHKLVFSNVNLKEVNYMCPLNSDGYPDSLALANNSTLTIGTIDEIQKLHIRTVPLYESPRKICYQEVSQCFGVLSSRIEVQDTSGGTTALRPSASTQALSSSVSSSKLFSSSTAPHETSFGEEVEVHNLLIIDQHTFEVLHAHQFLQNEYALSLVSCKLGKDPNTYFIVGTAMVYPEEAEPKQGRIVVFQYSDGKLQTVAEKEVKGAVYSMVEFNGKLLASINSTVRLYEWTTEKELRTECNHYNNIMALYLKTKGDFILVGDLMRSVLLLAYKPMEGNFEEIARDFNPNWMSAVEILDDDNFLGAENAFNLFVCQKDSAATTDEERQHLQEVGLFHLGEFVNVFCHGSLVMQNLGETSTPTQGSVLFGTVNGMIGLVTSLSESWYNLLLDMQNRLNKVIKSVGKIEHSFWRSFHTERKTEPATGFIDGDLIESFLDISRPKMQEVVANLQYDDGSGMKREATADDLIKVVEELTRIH

IKZF1 = molecular target: T2, IKZF1 (Homo sapiens, UniProt Q13422+Q96SW2); test: Western-blot assay, substrate protein degradation in hPBMCs: IKZF1; format: cell-based; conditions: for IKZF1 substrate protein remaining %: compounds at 50 nM and 500 nM, 24 hours
T2 construct: effects of the compounds of the present disclosure on the expression of target proteins in cells; endogenous in cells; host or cells: human PBMCs (hPBMCs)
T2 sequence (Q13422 whole entry): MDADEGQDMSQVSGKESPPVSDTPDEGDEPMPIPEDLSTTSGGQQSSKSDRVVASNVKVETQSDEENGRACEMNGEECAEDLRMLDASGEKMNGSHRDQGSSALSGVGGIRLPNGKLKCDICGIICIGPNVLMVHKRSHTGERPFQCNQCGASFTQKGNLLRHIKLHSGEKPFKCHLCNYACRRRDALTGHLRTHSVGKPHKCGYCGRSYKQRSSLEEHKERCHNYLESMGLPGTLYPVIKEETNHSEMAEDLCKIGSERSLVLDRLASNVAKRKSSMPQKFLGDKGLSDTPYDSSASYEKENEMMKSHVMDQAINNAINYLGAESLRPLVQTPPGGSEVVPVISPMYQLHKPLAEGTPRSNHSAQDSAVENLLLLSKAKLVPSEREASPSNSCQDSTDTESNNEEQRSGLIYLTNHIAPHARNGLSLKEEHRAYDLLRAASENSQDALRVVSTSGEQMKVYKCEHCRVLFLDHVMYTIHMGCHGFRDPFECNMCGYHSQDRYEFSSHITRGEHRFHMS
T2 sequence (Q96SW2 whole entry): as the sequence (Q96SW2 whole entry) above
T2 sequence (Q16531 whole entry partner): as the sequence (Q16531 whole entry partner) above

IKZF2 = molecular target: T3, IKZF2 (Homo sapiens, UniProt Q96SW2+Q9UKS7); test: Western-blot assay, substrate protein degradation in hPBMCs: IKZF2; format: cell-based; conditions: for IKZF2 substrate protein remaining %: compounds at 50 nM and 500 nM, 24 hours
T3 construct: effects of the compounds of the present disclosure on the expression of target proteins in cells; endogenous in cells; host or cells: human PBMCs (hPBMCs)
T3 sequence (Q9UKS7 whole entry): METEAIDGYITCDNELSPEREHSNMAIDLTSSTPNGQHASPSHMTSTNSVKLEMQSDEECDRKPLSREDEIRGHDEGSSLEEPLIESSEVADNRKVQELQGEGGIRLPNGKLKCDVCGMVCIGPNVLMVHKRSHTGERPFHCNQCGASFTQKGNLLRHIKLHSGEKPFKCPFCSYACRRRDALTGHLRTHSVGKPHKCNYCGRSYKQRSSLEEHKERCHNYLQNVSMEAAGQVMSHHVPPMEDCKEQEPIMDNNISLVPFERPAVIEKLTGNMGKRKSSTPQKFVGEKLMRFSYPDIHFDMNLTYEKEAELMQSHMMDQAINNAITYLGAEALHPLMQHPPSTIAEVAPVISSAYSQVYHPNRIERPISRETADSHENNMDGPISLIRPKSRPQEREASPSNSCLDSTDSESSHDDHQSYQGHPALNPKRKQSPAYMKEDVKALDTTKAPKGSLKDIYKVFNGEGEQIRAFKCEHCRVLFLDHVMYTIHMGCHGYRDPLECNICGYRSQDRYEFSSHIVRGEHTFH
T3 sequence (Q96SW2 whole entry): as the sequence (Q96SW2 whole entry) above
T3 sequence (Q16531 whole entry partner): as the sequence (Q16531 whole entry partner) above

IKZF3 = molecular target: T4, IKZF3 (Homo sapiens, UniProt Q96SW2+Q9UKT9); test: Western-blot assay, substrate protein degradation in hPBMCs: IKZF3; format: cell-based; conditions: for IKZF3 substrate protein remaining %: compounds at 50 nM and 500 nM, 24 hours
T4 construct: effects of the compounds of the present disclosure on the expression of target proteins in cells; endogenous in cells; host or cells: human PBMCs (hPBMCs)
T4 sequence (Q9UKT9 whole entry): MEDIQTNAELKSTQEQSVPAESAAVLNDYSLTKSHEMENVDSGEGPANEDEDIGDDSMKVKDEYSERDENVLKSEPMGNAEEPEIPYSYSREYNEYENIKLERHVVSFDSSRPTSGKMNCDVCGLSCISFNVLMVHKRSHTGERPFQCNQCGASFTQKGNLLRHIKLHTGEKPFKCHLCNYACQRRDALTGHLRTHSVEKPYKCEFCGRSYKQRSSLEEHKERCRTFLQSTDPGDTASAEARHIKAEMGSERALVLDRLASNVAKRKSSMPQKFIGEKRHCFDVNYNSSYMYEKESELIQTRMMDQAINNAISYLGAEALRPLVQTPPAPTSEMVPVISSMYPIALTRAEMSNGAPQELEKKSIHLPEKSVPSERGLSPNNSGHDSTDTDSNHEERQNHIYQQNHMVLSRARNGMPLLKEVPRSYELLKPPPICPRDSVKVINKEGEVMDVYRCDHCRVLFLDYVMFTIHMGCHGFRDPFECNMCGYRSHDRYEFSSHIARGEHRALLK
T4 sequence (Q96SW2 whole entry): as the sequence (Q96SW2 whole entry) above
T4 sequence (Q16531 whole entry partner): as the sequence (Q16531 whole entry partner) above

CK1α = molecular target: T5, CK1α (Homo sapiens, UniProt P48729+Q96SW2); test: Western-blot assay, substrate protein degradation in hPBMCs: CK1α; format: cell-based; conditions: for CK1α substrate protein remaining %: compounds at 50 nM and 500 nM, 24 hours
T5 construct: effects of the compounds of the present disclosure on the expression of target proteins in cells; endogenous in cells; host or cells: human PBMCs (hPBMCs)

GSPT1 = molecular target: T6, GSPT1 (Homo sapiens, UniProt P15170+Q96SW2); test: Western-blot assay, substrate protein degradation in hPBMCs: GSPT1; format: cell-based; conditions: for GSPT1 substrate protein remaining %: compounds at 50 nM and 500 nM, 24 hours
T6 construct: effects of the compounds of the present disclosure on the expression of target proteins in cells; endogenous in cells; host or cells: human PBMCs (hPBMCs)
T6 sequence (P15170 whole entry): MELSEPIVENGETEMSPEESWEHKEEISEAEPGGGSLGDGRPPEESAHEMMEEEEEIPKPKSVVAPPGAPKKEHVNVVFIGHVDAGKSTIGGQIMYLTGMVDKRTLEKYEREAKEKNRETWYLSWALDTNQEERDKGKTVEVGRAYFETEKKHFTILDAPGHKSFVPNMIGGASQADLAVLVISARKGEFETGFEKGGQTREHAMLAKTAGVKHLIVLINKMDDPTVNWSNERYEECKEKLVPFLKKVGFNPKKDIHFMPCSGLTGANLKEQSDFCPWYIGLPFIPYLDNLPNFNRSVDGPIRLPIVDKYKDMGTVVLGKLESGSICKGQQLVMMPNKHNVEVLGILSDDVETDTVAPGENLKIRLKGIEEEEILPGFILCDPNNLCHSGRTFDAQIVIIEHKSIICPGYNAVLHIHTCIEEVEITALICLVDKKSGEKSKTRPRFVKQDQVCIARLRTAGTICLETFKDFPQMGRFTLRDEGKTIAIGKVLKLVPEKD
T6 sequence (Q96SW2 whole entry): as the sequence (Q96SW2 whole entry) above
T6 sequence (Q16531 whole entry partner): as the sequence (Q16531 whole entry partner) above

MM.1S = test: Cell viability assay (CellTiter-Meiluncell Luminescent), tumor cell proliferation, MM.1S; conditions: Homo sapiens, MM1.S, 96 h, read-out: inhibitory activity (IC50, nM) against tumor cells proliferation, MM.1S
MGC803 = test: Cell viability assay (CellTiter-Meiluncell Luminescent), tumor cell proliferation, MGC803; conditions: Homo sapiens, MGC-803, 96 h, read-out: inhibitory activity (IC50, nM) against tumor cells proliferation, MGC803
Description: On the following day, the test compounds of the present disclosure were subjected to serial dilution. […] Subsequently, 0.5 µL of the test compound dilution was transferred into the 96-well plate containing the cells, with each well containing 100 µL of cell culture medium. […] Into the 96-well plate, the diluted test compounds and corresponding detection reagents were added, resulting in final test compound concentrations of 500 nM and 10 nM, respectively.
After the cells were treated with the compounds of the present disclosure for a specified period, the cell viability assay reagent was added to the culture medium according to the kit's instructions to determine cell viability. […] All controls were treated using the same procedure as the compounds of the present disclosure. The growth inhibition curves for the compounds of the present disclosure were plotted using Prism GraphPad software, and the IC50 values were calculated therefrom.

[1] = molecular target: T7, human Cereblon WT GST-tagged protein (Homo sapiens, UniProt Q96SW2); test: CRBN-binding affinity, CEREBLON BINDING kit (HTRF)
T7 construct: purchased CISBIO 64BDCRBNPEH
T7 sequence (Q96SW2 whole entry): as the sequence (Q96SW2 whole entry) above
Description: The CEREBLON BINDING kits (specification: 10,000 tests; product number: Catalog # 64BDCRBNPEH; CISBIO company) was used to determine the CRBN binding ability of the compounds to be tested through a HTRF method (homogeneous time-resolved fluorescence). The specific methods are as follows: • 1. […] Specifically, diluent #9 (1X) solution was used as the diluent, and multiple concentration gradients were set. […] Into the 96-well plate, the diluted test compounds and corresponding detection reagents were added, resulting in final test compound concentrations of 2 µM and 0.5 µM, respectively. […] Then, 2.5 µL of human Cereblon WT GST-tagged protein solution was added to each well. Finally, 5 µL of the thoroughly mixed Thalidomide-Re reagent and GST Eu antibody working solution were added to each of the aforementioned wells. […] The blank control wells were sequentially added with 2.5 µL of diluent #9 (1X) solution, 2.5 µL of binding buffer, and 5 µL of thoroughly mixed Thalidomide-Re reagent and GST Eu antibody working solution. • 4. […] OD 620 nm control is the absorbance value of the blank control well at an emission wavelength of 620 nm. […] OD 620 nm Std0 is the absorbance value of the solvent control well at an emission wavelength of 620 nm.

H292 = test: Cell viability assay (CellTiter-Meiluncell Luminescent), tumor cell proliferation, H292; conditions: Homo sapiens, NCI-H292, 96 h
H2228 = test: Cell viability assay (CellTiter-Meiluncell Luminescent), tumor cell proliferation, H2228; conditions: Homo sapiens, NCI-H2228, 96 h
MV-4-11 = test: Cell viability assay (CellTiter-Meiluncell Luminescent), tumor cell proliferation, MV-4-11; conditions: Homo sapiens, MV4-11, 96 h
MDA-MB-231 = test: Cell viability assay (CellTiter-Meiluncell Luminescent), tumor cell proliferation, MDA-MB-231; conditions: Homo sapiens, MDA-MB-231, 96 h
[2] = 24 hours of compound treatment, 50 nM and 500 nM
[3] = read-out: Inhibition Rate at 10 nM (%)
[4] = read-out: Inhibition Rate at 500 nM (%)

| SMILES | WEE1 substrate protein remaining % (WEE1) | IKZF1 substrate protein remaining % (IKZF1) | IKZF2 substrate protein remaining % (IKZF2) | IKZF3 substrate protein remaining % (IKZF3) | CK1α substrate protein remaining % (CK1α) | GSPT1 substrate protein remaining % (GSPT1) | IC50 (MM.1S) | IC50 (MGC803) | further results |
| --- | --- | --- | --- | --- | --- | --- | --- | --- | --- |
| O=C1CCN(N2Cc3cc(CN4CCN(c5cccc(Cl)c5Cl)CC4)ccc3C2=O)C(=O)N1 [GT-04853, 1-(5-((4-(2,3-dichlorophenyl)piperazin-1-yl)methyl)-1-oxoisoindolin-2-yl)dihydropyrimidine-2,4(1H,3H)-dione] | A ("A" is defined as 0% ≤ substrate protein remaining % ≤ 80%) | A ("A" is defined as 0% ≤ substrate protein remaining % ≤ 80%) | A ("A" is defined as 0% ≤ substrate protein remaining % ≤ 80%) | B ("B" is defined as 80%< substrate protein remaining %≤ 100%) | B ("B" is defined as 80%< substrate protein remaining %≤ 100%) | A ("A" is defined as 0% ≤ substrate protein remaining % ≤ 80%) | 100 to 300 nM | 500 to 1000 nM |  |
| O=C1CCN(N2Cc3cc(CN4CCN(C(c5ccccc5)c5ccccn5)CC4)ccc3C2=O)C(=O)N1 (centres unmarked) [GT-04890, 1-(1-oxo-5-((4-(phenyl(pyridin-2-yl)methyl)piperazin-1-yl)methyl)isoindolin-2-yl)dihydropyrimidine-2,4(1H,3H)-dione] | B ("B" is defined as 80%< substrate protein remaining %≤ 100%) | A ("A" is defined as 0% ≤ substrate protein remaining % ≤ 80%) | A ("A" is defined as 0% ≤ substrate protein remaining % ≤ 80%) | B ("B" is defined as 80%< substrate protein remaining %≤ 100%) | B ("B" is defined as 80%< substrate protein remaining %≤ 100%) | A ("A" is defined as 0% ≤ substrate protein remaining % ≤ 80%) | 100 to 300 nM | 500 to 1000 nM |  |
| O=C1CCN(N2Cc3cc(CN4CCN(c5ncnc6sc7c(c56)CCC7)CC4)ccc3C2=O)C(=O)N1 [GT-08079, 1-(5-((4-(6,7-dihydro-5H-cyclopenta[4,5]thieno[2,3-d]pyrimidin-4-yl)piperazin-1-yl)methyl)-1-oxoisoindolin-2-yl)dihydropyrimidine-2,4(1H,3H)-dione] |  |  |  |  |  |  |  |  | substrate protein remaining % WEE1 (WEE1; [2]): A (0% ≤ substrate protein remaining % ≤ 80%); substrate protein remaining % IKZF1 (IKZF1; [2]): B (80%< substrate protein remaining %≤ 100%); substrate protein remaining % IKZF2 (IKZF2; [2]): B (80%< substrate protein remaining %≤ 100%); substrate protein remaining % IKZF3 (IKZF3; [2]): B (80%< substrate protein remaining %≤ 100%); substrate protein remaining % CK1α (CK1α; [2]): A (0% ≤ substrate protein remaining % ≤ 80%); substrate protein remaining % GSPT1 (GSPT1; [2]): A (0% ≤ substrate protein remaining % ≤ 80%); inhibition at 0.5 µM ([1]; 0.5 µM, read-out: Inhibition Rate at 0.5 µM (%)): 20 to 30%; inhibition at 2 µM ([1]; 2 µM, read-out: Inhibition Rate at 2 µM (%)): 53 to 60%; inhibition at 0.01 µM (H292; [3]): 20 to 40%; inhibition at 0.5 µM (H292; [4]): 20 to 40%; inhibition at 0.01 µM (H2228; [3]): 15 to 20%; inhibition at 0.5 µM (H2228; [4]): 20 to 25%; inhibition at 0.01 µM (MV-4-11; [3]): 40 to 60%; inhibition at 0.5 µM (MV-4-11; [4]): 40 to 60%; inhibition at 0.01 µM (MDA-MB-231; [3]): 18 to 25%; inhibition at 0.5 µM (MDA-MB-231; [4]): 10 to 15% |
